Laboratory results reported in US9644006B2, “Carrier peptides for cell delivery” (priority 2011, dated 2017).
Like-named read-outs stand apart in the source and are kept apart here.

System: Vero cells
Assay: Effect of cytoskeleton depolymerizing drugs on delivery peptide (DynPro) movement
Type: cell-based, African green monkey
[1] = Vero cells with 10 μM DynPro, Nocodazole 2.5 μM 30 min, LatrunculinA 0.1 μM

| Structure (SMILES) | effect of the drug on delivery peptide transport movement | effect of the drug on delivery peptide transport movement [1] |
| --- | --- | --- |
| C/C1=C\[C@H](C)C[C@H](C)OC(=O)C[C@H](c2ccc(O)cc2)NC(=O)[C@@H](Cc2c(Br)[nH]c3ccccc23)N(C)C(=O)[C@H](C)NC(=O)[C@@H](C)C1 [Jasplakinolide] | did not inhibit this movement | – |
| COC(=O)Nc1nc2ccc(C(=O)c3cccs3)cc2[nH]1 [Nocodazole] | – | abolished |
| C/C1=C/C(=O)O[C@@H]2C[C@@H](CC[C@H](C)/C=C\C=C\CC1)O[C@@](O)([C@@H]1CSC(=O)N1)C2 [LatrunculinA] | – | transport was preserved |
